Measured values taken from PMC10382351, “In vivo evaluation of a novel ^18F-labeled PET radioligand for translocator protein 18 kDa (TSPO) in monkey brain” (European Journal of Nuclear Medicine and Molecular Imaging, 2023).

Columns and labels:
TSPO [1] = conditions: cited from earlier work; for BPND of whole brain: monkey brain
TSPO [2] = target: TSPO; design: method as in PMID 25123416, PMID 34756026; conditions: human brain homogenates; against [^3H]PK11195; cited from earlier work
[3] = test system: 18 kDa translocator protein (TSPO); test: PET imaging of [^18F]SF51 in rhesus monkey brain with kinetic analysis (2TCM, Logan plot, Lassen plot); type: in vivo; conditions: radioligand [^18F]SF51
Experimental: Electrocardiogram, body temperature, heart rate, and respiratory rate measures were monitored throughout the scan.
Brain PET imaging was performed using a microPET Focus 220 camera (Siemens Medical Solution; Knoxville, TN). […] For baseline experiments, 20 mL of a vehicle containing 20% (2-hydroxypropyl)-β-cyclodextrin and two equivalents of HCl were injected intravenously 10 min before radioligand administration. For the blocked experiment, PK11195 was dissolved in vehicle and then injected intravenously (5 mg/kg) 10 min before radioligand injection for all three monkeys. One of the three monkeys underwent an additional blocked scan with 5 mg/kg of PBR28, performed using a MultiScan™ LFER 150 PET/CT (Mediso USA, LLC; Arlington, VA). The interval between baseline and blocked imaging sessions was at least three weeks in order to allow the monkey to recover from arterial blood sampling. Focus 220 PET images were histogrammed into 30 time frames (6 × 30, 3 × 60, 2 × 120, 4 × 300, and 15 × 600 s) and reconstructed using Fourier rebinning plus a two-dimensional filtered back-projection with scatter and attenuation correction. MultiScan LFER PET images were reconstructed with 3D-OSEM with two iterations and nine subsets and were corrected for scatter and attenuation.
PET images were co-registered to a standardized monkey MRI template using PMOD software (PMOD version 4.1, PMOD Technologies Ltd.; Zurich, Switzerland). Thirty-three predefined regions of interest (ROIs) from a monkey brain template were applied to the co-registered PET images to obtain regional time-activity curves (Supplementary Table S2). Brain uptake was expressed as standardized uptake value (SUV), which normalizes for injected radioactivity and body weight. Using the brain time-activity curves and the radiometabolite-corrected arterial input function, the total VT was derived from a two-tissue compartment model (2TCM). Receptor occupancy by PK11195 and nondisplaceable distribution volume (VND/fP) of [^18F]SF51 were determined by an axes-transformed Lassen plot, where the y-axis reports the difference in VT between the baseline and the blocked scans, corrected by the respective fp values, and the x-axis reports the values at baseline (VTbase/fPbase).

CC[C@@H](C)N(C)C(=O)c1nc(-c2ccccc2Cl)c2ccccc2n1 [ER176]
BPND of whole brain (TSPO [1]): 8.9
Ki ratio between LAB and HAB (TSPO [2]): 1.28

CCC(C)N(C)C(=O)c1cc2ccccc2c(-c2ccccc2Cl)n1 (stereo not drawn) [PK11195, reference compound]
Receptor occupancy (Lassen plot) ([3]; PK11195 5 mg/kg i.v., three rhesus monkeys): 102 ± 3%
Slope of Lassen plot (= occupancy) ([3]; PK11195 5 mg/kg, mean ± SD, n = 3): 1.02 ± 0.03

CC[C@@H](C)N([11CH3])C(=O)c1nc(-c2ccccc2Cl)c2ccccc2n1 [[^11C]ER176]
VT/fP in the whole brain (TSPO [1]; monkey): 186 mL·cm^−3

CC[C@@H](C)N([11CH3])C(=O)c1nc(-c2cccc(F)c2)c2ccccc2n1 [[^11C]SF51]
BPND of whole brain (TSPO [1]): 8.1
